According to US12187719B2, “Proteolysis targeting chimera (PROTACS) as degraders of SMARCA2 and /or SMARCA4” (Boehringer Ingelheim International GmbH, priority 2018, dated 2025):

Tests used:
[1] = target: T1, SMARCA4 (Homo sapiens, UniProt P51532); assay: Protein degradation assay in A549 cells, SMARCA4 levels by WES capillary electrophoresis; assay type: cell-based; details: A549 (NSCLC) cells with SMARCA4 mutation corrected to wild type, 18 h incubation; for DC50: concentration at which half maximal degradation is achieved, normalised to GAPDH; for Dmax: maximal amount of degraded protein relative to initial levels
T1 construct: endogenous in cells; host or cells: A549 (NSCLC) cells with SMARCA4 mutation corrected to wild type
T1 sequence (P51532 whole entry): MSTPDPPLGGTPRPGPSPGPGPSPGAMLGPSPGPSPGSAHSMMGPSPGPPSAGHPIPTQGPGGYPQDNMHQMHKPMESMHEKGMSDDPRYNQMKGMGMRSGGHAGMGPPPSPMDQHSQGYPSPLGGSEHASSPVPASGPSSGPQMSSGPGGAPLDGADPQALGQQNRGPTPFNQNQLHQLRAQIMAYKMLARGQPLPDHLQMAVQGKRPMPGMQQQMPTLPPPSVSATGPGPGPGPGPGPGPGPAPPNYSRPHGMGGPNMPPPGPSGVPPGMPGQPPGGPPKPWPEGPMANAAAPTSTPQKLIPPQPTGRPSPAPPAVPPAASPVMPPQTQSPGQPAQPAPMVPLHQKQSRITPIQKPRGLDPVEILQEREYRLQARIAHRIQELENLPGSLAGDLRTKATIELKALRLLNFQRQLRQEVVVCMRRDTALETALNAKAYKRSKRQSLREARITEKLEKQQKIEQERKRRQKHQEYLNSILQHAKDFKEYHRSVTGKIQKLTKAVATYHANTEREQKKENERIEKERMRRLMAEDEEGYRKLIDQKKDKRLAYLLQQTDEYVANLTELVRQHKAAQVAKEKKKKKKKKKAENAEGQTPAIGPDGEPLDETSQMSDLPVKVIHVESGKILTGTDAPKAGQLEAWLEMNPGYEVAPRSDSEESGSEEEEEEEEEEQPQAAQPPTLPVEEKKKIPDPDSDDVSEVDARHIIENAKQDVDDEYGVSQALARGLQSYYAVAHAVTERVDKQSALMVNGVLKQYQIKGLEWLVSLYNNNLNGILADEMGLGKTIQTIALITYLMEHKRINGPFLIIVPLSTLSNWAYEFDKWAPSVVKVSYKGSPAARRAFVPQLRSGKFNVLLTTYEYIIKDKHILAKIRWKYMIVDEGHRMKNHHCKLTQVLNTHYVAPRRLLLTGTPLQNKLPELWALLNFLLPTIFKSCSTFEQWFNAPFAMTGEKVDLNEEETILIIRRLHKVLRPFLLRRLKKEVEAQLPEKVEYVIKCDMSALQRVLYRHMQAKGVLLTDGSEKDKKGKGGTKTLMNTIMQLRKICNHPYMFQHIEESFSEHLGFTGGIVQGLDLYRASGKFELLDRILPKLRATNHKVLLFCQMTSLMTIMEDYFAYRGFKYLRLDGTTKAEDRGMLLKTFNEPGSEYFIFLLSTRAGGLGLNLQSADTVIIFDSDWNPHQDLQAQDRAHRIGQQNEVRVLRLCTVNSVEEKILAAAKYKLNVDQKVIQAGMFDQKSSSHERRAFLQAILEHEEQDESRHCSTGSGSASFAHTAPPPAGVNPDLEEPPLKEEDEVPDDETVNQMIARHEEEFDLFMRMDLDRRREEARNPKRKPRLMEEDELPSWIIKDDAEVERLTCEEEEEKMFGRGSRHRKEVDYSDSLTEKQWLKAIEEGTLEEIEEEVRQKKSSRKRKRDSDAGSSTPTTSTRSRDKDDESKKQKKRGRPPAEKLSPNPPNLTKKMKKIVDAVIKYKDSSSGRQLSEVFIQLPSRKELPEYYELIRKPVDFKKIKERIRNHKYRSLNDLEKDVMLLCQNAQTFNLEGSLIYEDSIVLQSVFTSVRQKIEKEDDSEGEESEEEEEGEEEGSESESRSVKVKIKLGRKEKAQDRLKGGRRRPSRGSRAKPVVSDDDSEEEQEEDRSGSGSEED
Protocol: (§1) For the protein degradation assay, A549 (NSCLC) cells are used in which the inactivating SMARCA4 mutation has been corrected to wild type, such that the cells express both SMARCA2 and SMARCA4. 35000 cells in F12K Medium +10% FBS (100 μL/well) are seeded in a Greiner 96 well F-bottom plate and incubated at 37° C. overnight. Compounds are added from DMSO stock solution using ECHO Access™ workstation or HP D300 Digital Dispenser and cells are incubated at 37° C. for 18 h. Medium is removed, cells are washed with PBS, PBS is removed and 30 μL cold Lysis Buffer (1% Triton, 350 mM KCl, 10 mM Tris, Halt Phosphatase-Protease Inhibitors, 10 mM DTT, Benzonase 0.5 μL/mL) is added to each well. Cells are lysed for 20 min at 4° C. on a bioshake at 800 rpm before insoluble debris is pelleted by centrifugation for 20 min at 4000 rpm at 4° C. The supernatant is transferred to a fresh PCR plate. SMARCA2 levels are determined on a WES capillary electrophoresis instrument (Proteinsimple) using rabbit anti-SMARCA2 antibody (1:25, Sigma #HPA029981), SMARCA4 antibody (CellSignaling #49360, 1:25), PBRM1 antibody (Bethyl #A301-591A-M, 1:40) and anti-GAPDH antibody (1:100, Abcam #ab9485) for normalization.
The Dmax represents the efficiency of degradation and gives the maximal amount of degraded protein relative to initial levels.

[2] = target: T2, SMARCA2 (Homo sapiens, UniProt P51531); assay: Protein degradation assay in A549 cells, SMARCA2 levels by WES capillary electrophoresis; assay type: cell-based; details: A549 (NSCLC) cells with SMARCA4 mutation corrected to wild type, 18 h incubation; for DC50: concentration at which half maximal degradation is achieved, normalised to GAPDH; for Dmax: maximal amount of degraded protein relative to initial levels
T2 construct: such that the cells express both SMARCA2 and SMARCA4; endogenous in cells; host or cells: A549 (NSCLC) cells with SMARCA4 mutation corrected to wild type
T2 sequence (P51531 whole entry): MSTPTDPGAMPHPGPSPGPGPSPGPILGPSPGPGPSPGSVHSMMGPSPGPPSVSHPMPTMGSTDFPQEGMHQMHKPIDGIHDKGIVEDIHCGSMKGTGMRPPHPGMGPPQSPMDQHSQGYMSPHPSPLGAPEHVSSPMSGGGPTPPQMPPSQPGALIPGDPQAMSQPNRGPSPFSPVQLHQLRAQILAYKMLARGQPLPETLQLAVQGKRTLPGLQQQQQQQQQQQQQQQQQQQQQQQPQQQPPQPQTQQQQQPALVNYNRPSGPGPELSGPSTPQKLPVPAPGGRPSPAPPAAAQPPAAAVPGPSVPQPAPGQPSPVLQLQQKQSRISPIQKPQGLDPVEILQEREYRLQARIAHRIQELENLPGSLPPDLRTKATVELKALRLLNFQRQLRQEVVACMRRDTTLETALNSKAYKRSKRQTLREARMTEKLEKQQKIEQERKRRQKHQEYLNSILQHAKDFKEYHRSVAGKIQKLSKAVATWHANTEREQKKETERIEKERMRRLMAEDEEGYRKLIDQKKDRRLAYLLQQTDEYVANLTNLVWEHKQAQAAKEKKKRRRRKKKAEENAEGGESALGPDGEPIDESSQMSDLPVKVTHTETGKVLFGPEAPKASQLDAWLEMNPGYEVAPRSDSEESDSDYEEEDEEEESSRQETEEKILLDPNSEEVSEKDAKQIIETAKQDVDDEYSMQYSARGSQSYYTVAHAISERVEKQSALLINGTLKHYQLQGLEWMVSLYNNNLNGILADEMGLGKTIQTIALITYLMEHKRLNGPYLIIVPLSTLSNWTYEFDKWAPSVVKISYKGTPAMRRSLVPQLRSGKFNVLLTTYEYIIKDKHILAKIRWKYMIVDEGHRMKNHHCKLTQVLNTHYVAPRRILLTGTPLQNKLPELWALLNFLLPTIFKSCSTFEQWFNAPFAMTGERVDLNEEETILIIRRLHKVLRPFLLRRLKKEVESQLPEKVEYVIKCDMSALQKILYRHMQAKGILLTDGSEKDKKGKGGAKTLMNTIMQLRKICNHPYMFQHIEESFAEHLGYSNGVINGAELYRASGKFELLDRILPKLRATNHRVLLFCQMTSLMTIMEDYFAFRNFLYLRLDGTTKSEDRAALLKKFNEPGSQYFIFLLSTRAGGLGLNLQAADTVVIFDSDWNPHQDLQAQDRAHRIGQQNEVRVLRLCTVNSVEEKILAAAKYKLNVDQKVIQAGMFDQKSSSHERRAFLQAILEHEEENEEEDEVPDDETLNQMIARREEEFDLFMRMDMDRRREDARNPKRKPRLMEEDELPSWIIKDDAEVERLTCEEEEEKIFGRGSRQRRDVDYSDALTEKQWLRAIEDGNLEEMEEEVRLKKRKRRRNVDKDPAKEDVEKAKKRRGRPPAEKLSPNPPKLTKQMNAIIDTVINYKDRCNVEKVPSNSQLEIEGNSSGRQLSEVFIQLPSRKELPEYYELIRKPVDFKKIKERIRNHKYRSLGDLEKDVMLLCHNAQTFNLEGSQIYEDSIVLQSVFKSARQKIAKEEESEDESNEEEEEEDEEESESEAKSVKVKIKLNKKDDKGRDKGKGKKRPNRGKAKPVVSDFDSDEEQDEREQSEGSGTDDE
Protocol: as §1
The compounds 1-1 to 1-18 according to the invention have been tested in the above described assay. The majority of the compounds show degradation of SMARCA2 and SMARCA4 protein in A549 cells with DC50 in the range of 10-1000 nM (i.e. compound concentration at which half maximal degradation is achieved). The Dmax represents the efficiency of degradation and gives the maximal amount of degraded protein relative to initial levels. The majority of the compounds reach degradation levels >80%.

DC50 [1] | Dmax [1] | DC50 [2] | Dmax [2] | SMILES
26 nM | 99% | 41 nM | 99% | Cc1ncsc1-c1ccc(CNC(=O)[C@@H]2C[C@@H](O)CN2C(=O)[C@@H](NC(=O)C2(F)CC2)C(C)(C)C)c(OCCc2ccc(OCCN3CCN(c4cc(-c5ccccc5O)nnc4N)CC3)cc2)c1 [Compound I-10]
219 nM | 89% | 172 nM | 83% | Cc1ncsc1-c1ccc(CNC(=O)[C@@H]2C[C@@H](O)CN2C(=O)[C@@H](NC(=O)C2(F)CC2)C(C)(C)C)c(OCCCCCCCOCCN2CCN(c3cc(-c4ccccc4O)nnc3N)CC2)c1 [Compound I-6]
168 nM | 59% | 56 nM | 88% | Cc1ncsc1-c1ccc(CNC(=O)[C@@H]2C[C@@H](O)CN2C(=O)[C@@H](NC(=O)C2(F)CC2)C(C)(C)C)c(OCc2ccc(CN3CCN(c4cc(-c5ccccc5O)nnc4N)CC3)cc2)c1 [Compound I-8]
634 nM | 97% | 189 nM | 88% | Cc1ncsc1-c1ccc(CNC(=O)[C@@H]2C[C@@H](O)CN2C(=O)[C@@H](NC(=O)C2(F)CC2)C(C)(C)C)c(OCCc2cccc(CN3CCN(c4cc(-c5ccccc5O)nnc4N)CC3)c2)c1 [Compound I-13]
 |  | ~1000 nM | 40% | Cc1ncsc1-c1ccc(CNC(=O)[C@@H]2C[C@@H](O)CN2C(=O)[C@@H](NC(=O)C2(F)CC2)C(C)(C)C)c(OCc2ccc(CCN3CCN(c4cc(-c5ccccc5O)nnc4N)CC3)cc2)c1 [Compound I-12]
25 nM | 92% | 58 nM | 90% | Cc1ncsc1-c1ccc(CNC(=O)[C@@H]2C[C@@H](O)CN2C(=O)[C@@H](NC(=O)C2(F)CC2)C(C)(C)C)c(OCCCc2ccc(CN3CCN(c4cc(-c5ccccc5O)nnc4N)CC3)cc2)c1 [Compound I-14]
188 nM | 81% | 525 nM | 98% | Cc1ncsc1-c1ccc(CNC(=O)[C@@H]2C[C@@H](O)CN2C(=O)[C@@H](NC(=O)C2(F)CC2)C(C)(C)C)c(OCCc2ccc(C(=O)N3CCN(c4cc(-c5ccccc5O)nnc4N)CC3)cc2)c1 [Compound I-18]
2040 nM | 100% |  |  | Cc1ncsc1-c1ccc(CNC(=O)[C@@H]2C[C@@H](O)CN2C(=O)[C@@H](NC(=O)C2(F)CC2)C(C)(C)C)c(OCCCOCCN2CCN(c3cc(-c4ccccc4O)nnc3N)CC2)c1 [Compound I-3]
1240 nM | 70% | 450 nM | 45% | Cc1ncsc1-c1ccc(CNC(=O)[C@@H]2C[C@@H](O)CN2C(=O)[C@@H](NC(=O)C2(F)CC2)C(C)(C)C)c(OCCCCCCCN2CCN(c3cc(-c4ccccc4O)nnc3N)CC2)c1 [Compound I-1]
117 nM | 93% | 67 nM | 91% | Cc1ncsc1-c1ccc(CNC(=O)[C@@H]2C[C@@H](O)CN2C(=O)[C@@H](NC(=O)C2(F)CC2)C(C)(C)C)c(OCCc2ccc(CN3CCN(c4cc(-c5ccccc5O)nnc4N)CC3)cc2)c1 [Compound I-2]
 | 84% | 2540 nM | 89% | Cc1ncsc1-c1ccc(CNC(=O)[C@@H]2C[C@@H](O)CN2C(=O)[C@@H](NC(=O)C2(F)CC2)C(C)(C)C)c(OCCOCCOCCN2CCN(c3cc(-c4ccccc4O)nnc3N)CC2)c1 [Compound I-5]
735 nM | 87% | 1000 nM | 70% | Cc1ncsc1-c1ccc(CNC(=O)[C@@H]2C[C@@H](O)CN2C(=O)[C@@H](NC(=O)C2(F)CC2)C(C)(C)C)c(OCCCCOCCN2CCN(c3cc(-c4ccccc4O)nnc3N)CC2)c1 [Compound I-4]
170 nM | 83% | 236 nM | 85% | Cc1ncsc1-c1ccc(CNC(=O)[C@@H]2C[C@@H](O)CN2C(=O)[C@@H](NC(=O)C2(F)CC2)C(C)(C)C)c(OCCCCOc2ccc(CN3CCN(c4cc(-c5ccccc5O)nnc4N)CC3)cc2)c1 [Compound I-9]
16 nM | 100% | 26 nM | 99% | Cc1ncsc1-c1ccc(CNC(=O)[C@@H]2C[C@@H](O)CN2C(=O)[C@@H](NC(=O)C2(F)CC2)C(C)(C)C)c(OCCCOc2ccc(CN3CCN(c4cc(-c5ccccc5O)nnc4N)CC3)cc2)c1 [Compound I-11]

SMILES | DC50 [1] | Dmax [1] | DC50 [2] | Dmax [2]
Cc1ncsc1-c1ccc(CNC(=O)[C@@H]2C[C@@H](O)CN2C(=O)[C@@H](NC(=O)C2(F)CC2)C(C)(C)C)c(OCCOc2ccc(CN3CCN(c4cc(-c5ccccc5O)nnc4N)CC3)cc2)c1 [Compound I-7] | 16 nM | 97% | 12 nM | 98%
